# ChEMBL document CHEMBL6127049, “Discovery of the selective and nanomolar inhibitor of DPP-4 more potent than sitagliptin by structure-guided rational design” (Eur J Med Chem, 2024)
# Activity calls are given as the source filed them. The rule behind the calls is not given here.
# Legend:
# Dipeptidyl peptidase 4 = Dipeptidyl peptidase 4 (Homo sapiens, UniProt P27487); assay: Inhibition of DPP4 (unknown origin) assessed as hydrolysis rate using Gly-pro-p-nitroanilide as substrate measured after 20 mins incubation by fluorometric assay
# Rattus norvegicus [1] = species: Rattus norvegicus; assay: Anti-diabetic activity in STZ-induced type 2 diabetes male Wistar albino rat model assessed as fasting blood glucose level measured on day 28; format: functional
# Rattus norvegicus [2] = species: Rattus norvegicus; assay: Anti-diabetic activity in STZ-induced type 2 diabetes male Wistar albino rat model assessed as fasting blood glucose level measured on day 1; format: functional
# Rattus norvegicus [3] = assay: Reduction of serum glutamate oxaloacetate transaminase (SGOT) level in STZ-induced type 2 diabetes male Wistar albino rat model at 20 mg/kg, po measured after 4 weeks by hepatic function test; format: functional, organism-based
# Rattus norvegicus [4] = assay: Antihyperlipidemic effect in STZ-induced type 2 diabetes male Wistar albino rat model assessed as total cholesterol level at 10 mg/kg, po measured after 4 weeks (reference value: 227.04 +/- 4.10 mg/dL); format: functional
# Rattus norvegicus [5] = assay: Antihyperlipidemic effect in STZ-induced type 2 diabetes male Wistar albino rat model assessed as triglyceride level at 20 mg/kg, po measured after 4 weeks (reference value: 190.23 +/- 4.37 mg/dL); format: functional
# Rattus norvegicus [6] = assay: Reduction of serum glutamate oxaloacetate transaminase (SGOT) level in STZ-induced type 2 diabetes male Wistar albino rat model at 10 mg/kg, po measured after 4 weeks by hepatic function test; format: functional, organism-based
# Rattus norvegicus [7] = assay: Antihyperlipidemic effect in STZ-induced type 2 diabetes male Wistar albino rat model assessed as HDL level at 10 mg/kg, po measured after 4 weeks (reference value: 25.54 +/- 2.62 mg/dL); format: functional
# Rattus norvegicus [8] = assay: Antihyperlipidemic effect in STZ-induced type 2 diabetes male Wistar albino rat model assessed as total cholesterol level at 20 mg/kg, po measured after 4 weeks (reference value: 227.04 +/- 4.10 mg/dL); format: functional
# Rattus norvegicus [9] = assay: Antihyperlipidemic effect in STZ-induced type 2 diabetes male Wistar albino rat model assessed as HDL level at 20 mg/kg, po measured after 4 weeks (reference value: 25.54 +/- 2.62 mg/dL); format: functional
# Rattus norvegicus [10] = assay: Anti-diabetic activity in normal Wistar rat model assessed as blood glucose level at 10 mg/kg, po followed by treated administered 3 mg/kg orally measured after 60 mins by Oral glucose tolerance test (reference value: 153.74 + /- 3.94 mg/dL); format: functional; details: 1 h
# Rattus norvegicus [11] = assay: Reduction of alkaline phosphatase (ALP) level in STZ-induced type 2 diabetes male Wistar albino rat model at 20 mg/kg, po measured after 4 weeks by hepatic function test; format: functional, organism-based
# Rattus norvegicus [12] = assay: Anti-diabetic activity in normal Wistar rat model assessed as blood glucose level at 10 mg/kg, po followed by treated administered 3 mg/kg orally measured after 120 mins by Oral glucose tolerance test (reference value: 126.5 + /- 3.90 mg/dL); format: functional; details: 2 h
# Rattus norvegicus [13] = assay: Antihyperlipidemic effect in STZ-induced type 2 diabetes male Wistar albino rat model assessed as LDL level at 10 mg/kg, po measured after 4 weeks (reference value: 184.65 +/- 4.57 mg/dL); format: functional
# Rattus norvegicus [14] = assay: Reduction of serum glutamate pyruvate transaminase (SGPT) level in STZ-induced type 2 diabetes male Wistar albino rat model at 10 mg/kg, po measured after 4 weeks by hepatic function test; format: functional, organism-based
# Rattus norvegicus [15] = assay: Anti-diabetic activity in normal Wistar rat model assessed as blood glucose level at 20 mg/kg, po followed by treated administered 3 mg/kg orally measured after 30 mins by Oral glucose tolerance test (reference value: 176.14 + /- 4.04 mg/dL); format: functional; details: 0.5 h
# Rattus norvegicus [16] = assay: Reduction of serum glutamate pyruvate transaminase (SGPT) level in STZ-induced type 2 diabetes male Wistar albino rat model at 20 mg/kg, po measured after 4 weeks by hepatic function test; format: functional, organism-based
# Rattus norvegicus [17] = assay: Reduction of alkaline phosphatase (ALP) level in STZ-induced type 2 diabetes male Wistar albino rat model at 10 mg/kg, po measured after 4 weeks by hepatic function test; format: functional, organism-based
# Rattus norvegicus [18] = assay: Anti-diabetic activity in normal Wistar rat model assessed as blood glucose level at 20 mg/kg, po followed by treated administered 3 mg/kg orally measured after 120 mins by Oral glucose tolerance test (reference value: 126.5 + /- 3.90 mg/dL); format: functional; details: 2 h
# Rattus norvegicus [19] = assay: Anti-diabetic activity in normal Wistar rat model assessed as blood glucose level at 10 mg/kg, po followed by treated administered 3 mg/kg orally measured immediately after administration by Oral glucose tolerance test (reference value: 105.12 mg/dL); format: functional
# Rattus norvegicus [20] = assay: Antihyperlipidemic effect in STZ-induced type 2 diabetes male Wistar albino rat model assessed as triglyceride level at 10 mg/kg, po measured after 4 weeks (reference value: 190.23 +/- 4.37 mg/dL); format: functional
# Rattus norvegicus [21] = assay: Anti-diabetic activity in normal Wistar rat model assessed as blood glucose level at 20 mg/kg, po followed by treated administered 3 mg/kg orally measured after 90 mins by Oral glucose tolerance test (reference value: 134.11 + /- 4.64 mg/dL); format: functional; details: 1.5 h
# Rattus norvegicus [22] = assay: Anti-diabetic activity in normal Wistar rat model assessed as blood glucose level at 10 mg/kg, po followed by treated administered 3 mg/kg orally measured after 30 mins by Oral glucose tolerance test (reference value: […] 176.14 + /- 4.04 mg/dL); format: functional; details: 0.5 h
# Rattus norvegicus [23] = assay: Anti-diabetic activity in normal Wistar rat model assessed as blood glucose level at 20 mg/kg, po followed by treated administered 3 mg/kg orally measured immediately after administration by Oral glucose tolerance test (reference value: 105.12 mg/dL); format: functional
# Rattus norvegicus [24] = assay: Anti-diabetic activity in normal Wistar rat model assessed as blood glucose level at 20 mg/kg, po followed by treated administered 3 mg/kg orally measured after 60 mins by Oral glucose tolerance test (reference value: 153.74 + /- 3.94 mg/dL); format: functional; details: 1 h
# Rattus norvegicus [25] = assay: Anti-diabetic activity in normal Wistar rat model assessed as blood glucose level at 10 mg/kg, po followed by treated administered 3 mg/kg orally measured after 90 mins by Oral glucose tolerance test (reference value: 134.11 + /- 4.64 mg/dL); format: functional; details: 1.5 h
# Rattus norvegicus [26] = assay: Antihyperlipidemic effect in STZ-induced type 2 diabetes male Wistar albino rat model assessed as LDL level at 20 mg/kg, po measured after 4 weeks (reference value: 184.65 +/- 4.57 mg/dL); format: functional
# [27] = Acute toxicity in Balb/C mouse assessed as morphological changes in eyes at 1250 to 2000 mg/kg, po; format: organism-based; details: in vivo, dose 1250-2000 mg/kg
# [28] = Acute toxicity in Balb/C mouse assessed as morphological changes in convulsions at 1250 to 2000 mg/kg, po; format: organism-based; details: in vivo, dose 1250-2000 mg/kg
# [29] = Acute toxicity in Balb/C mouse assessed as morphological changes in nose at 1250 to 2000 mg/kg, po; format: organism-based; details: in vivo, dose 1250-2000 mg/kg
# [30] = Acute toxicity in Balb/C mouse assessed as morphological changes in tremors at 1250 to 2000 mg/kg, po; format: organism-based; details: in vivo, dose 1250-2000 mg/kg
# [31] = Acute toxicity in Balb/C mouse assessed as morphological changes in salvation at 1250 to 2000 mg/kg, po; format: organism-based; details: in vivo, dose 1250-2000 mg/kg
# [32] = Acute toxicity in Balb/C mouse assessed as morphological changes in skin at 1250 to 2000 mg/kg, po; format: organism-based; details: in vivo, dose 1250-2000 mg/kg
# [33] = Acute toxicity in Balb/C mouse assessed as morphological changes in unusual behavior at 1250 to 2000 mg/kg, po; format: organism-based; details: in vivo, dose 1250-2000 mg/kg
# Rattus norvegicus [34] = assay: Reduction of insulin level in STZ-induced type 2 diabetes male Wistar albino rat model at 20 mg/kg, po measured after 4 weeks by hepatic function test; format: functional, organism-based
# [35] = Acute toxicity in Balb/C mouse assessed as changes in general appearance at 1250 to 2000 mg/kg, po; format: organism-based; details: in vivo, dose 1250-2000 mg/kg
# [36] = Acute toxicity in Balb/C mouse assessed as morphological changes in fur at 1250 to 2000 mg/kg, po; format: organism-based; details: in vivo, dose 1250-2000 mg/kg
# Dipeptidyl peptidase 8 = Dipeptidyl peptidase 8 (Homo sapiens, UniProt Q6V1X1); assay: Inhibition of DPP8 (unknown origin) assessed as hydrolysis rate using Gly-pro-p-nitroanilide as substrate measured after 20 mins incubation by […] assay
# [37] = Acute toxicity in Balb/C mouse assessed as morphological changes in diarrhea at 1250 to 2000 mg/kg, po; format: organism-based; details: in vivo, dose 1250-2000 mg/kg
# Dipeptidyl peptidase 9 = Dipeptidyl peptidase 9 (Homo sapiens, UniProt Q86TI2); assay: Inhibition of DPP9 (unknown origin) assessed as hydrolysis rate using Gly-pro-p-nitroanilide as substrate measured after 20 mins incubation by […] assay
# Chain of Dipeptidyl peptidase 9 (Q86TI2 whole entry): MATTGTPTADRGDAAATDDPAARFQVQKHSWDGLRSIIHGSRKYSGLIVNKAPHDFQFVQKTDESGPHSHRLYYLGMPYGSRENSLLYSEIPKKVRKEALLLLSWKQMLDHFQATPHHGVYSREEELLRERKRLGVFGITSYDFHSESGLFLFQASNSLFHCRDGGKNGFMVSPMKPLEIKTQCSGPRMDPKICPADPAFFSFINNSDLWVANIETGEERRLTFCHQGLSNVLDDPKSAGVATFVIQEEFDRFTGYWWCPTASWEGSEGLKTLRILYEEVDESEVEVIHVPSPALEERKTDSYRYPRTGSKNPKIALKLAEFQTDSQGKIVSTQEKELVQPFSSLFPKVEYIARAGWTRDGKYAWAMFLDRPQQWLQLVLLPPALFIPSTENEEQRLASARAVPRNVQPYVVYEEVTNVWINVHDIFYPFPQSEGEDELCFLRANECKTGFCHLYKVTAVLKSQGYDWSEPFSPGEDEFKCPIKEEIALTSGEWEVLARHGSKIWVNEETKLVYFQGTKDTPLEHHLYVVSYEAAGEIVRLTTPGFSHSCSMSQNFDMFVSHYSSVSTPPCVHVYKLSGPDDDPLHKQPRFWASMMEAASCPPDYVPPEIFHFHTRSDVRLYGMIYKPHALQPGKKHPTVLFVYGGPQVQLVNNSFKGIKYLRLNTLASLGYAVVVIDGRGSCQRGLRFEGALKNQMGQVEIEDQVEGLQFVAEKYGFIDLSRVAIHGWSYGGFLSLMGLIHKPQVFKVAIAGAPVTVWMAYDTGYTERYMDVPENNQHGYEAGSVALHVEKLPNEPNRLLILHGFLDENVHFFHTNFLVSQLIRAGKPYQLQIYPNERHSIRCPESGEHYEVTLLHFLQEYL
# Chain of Dipeptidyl peptidase 4 (P27487 whole entry): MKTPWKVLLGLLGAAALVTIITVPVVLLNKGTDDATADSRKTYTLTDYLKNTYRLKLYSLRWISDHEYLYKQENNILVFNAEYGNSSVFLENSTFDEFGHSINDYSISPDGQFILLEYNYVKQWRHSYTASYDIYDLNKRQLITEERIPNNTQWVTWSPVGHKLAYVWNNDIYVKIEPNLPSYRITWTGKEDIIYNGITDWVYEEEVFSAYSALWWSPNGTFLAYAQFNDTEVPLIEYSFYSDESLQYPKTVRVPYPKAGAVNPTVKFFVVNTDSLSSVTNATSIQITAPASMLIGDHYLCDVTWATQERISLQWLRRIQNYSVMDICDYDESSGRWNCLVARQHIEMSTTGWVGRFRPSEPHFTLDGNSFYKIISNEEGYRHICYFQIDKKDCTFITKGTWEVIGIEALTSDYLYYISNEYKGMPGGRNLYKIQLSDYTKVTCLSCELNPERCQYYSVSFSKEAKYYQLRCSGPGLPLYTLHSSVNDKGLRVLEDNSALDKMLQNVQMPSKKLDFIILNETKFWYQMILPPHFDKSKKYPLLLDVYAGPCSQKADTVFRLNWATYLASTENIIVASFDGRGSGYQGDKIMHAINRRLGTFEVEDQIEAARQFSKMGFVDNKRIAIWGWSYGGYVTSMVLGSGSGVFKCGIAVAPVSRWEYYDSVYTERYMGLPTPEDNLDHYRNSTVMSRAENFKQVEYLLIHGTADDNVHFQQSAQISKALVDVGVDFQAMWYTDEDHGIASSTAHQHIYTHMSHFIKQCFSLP
# Chain of Dipeptidyl peptidase 8 (Q6V1X1 whole entry): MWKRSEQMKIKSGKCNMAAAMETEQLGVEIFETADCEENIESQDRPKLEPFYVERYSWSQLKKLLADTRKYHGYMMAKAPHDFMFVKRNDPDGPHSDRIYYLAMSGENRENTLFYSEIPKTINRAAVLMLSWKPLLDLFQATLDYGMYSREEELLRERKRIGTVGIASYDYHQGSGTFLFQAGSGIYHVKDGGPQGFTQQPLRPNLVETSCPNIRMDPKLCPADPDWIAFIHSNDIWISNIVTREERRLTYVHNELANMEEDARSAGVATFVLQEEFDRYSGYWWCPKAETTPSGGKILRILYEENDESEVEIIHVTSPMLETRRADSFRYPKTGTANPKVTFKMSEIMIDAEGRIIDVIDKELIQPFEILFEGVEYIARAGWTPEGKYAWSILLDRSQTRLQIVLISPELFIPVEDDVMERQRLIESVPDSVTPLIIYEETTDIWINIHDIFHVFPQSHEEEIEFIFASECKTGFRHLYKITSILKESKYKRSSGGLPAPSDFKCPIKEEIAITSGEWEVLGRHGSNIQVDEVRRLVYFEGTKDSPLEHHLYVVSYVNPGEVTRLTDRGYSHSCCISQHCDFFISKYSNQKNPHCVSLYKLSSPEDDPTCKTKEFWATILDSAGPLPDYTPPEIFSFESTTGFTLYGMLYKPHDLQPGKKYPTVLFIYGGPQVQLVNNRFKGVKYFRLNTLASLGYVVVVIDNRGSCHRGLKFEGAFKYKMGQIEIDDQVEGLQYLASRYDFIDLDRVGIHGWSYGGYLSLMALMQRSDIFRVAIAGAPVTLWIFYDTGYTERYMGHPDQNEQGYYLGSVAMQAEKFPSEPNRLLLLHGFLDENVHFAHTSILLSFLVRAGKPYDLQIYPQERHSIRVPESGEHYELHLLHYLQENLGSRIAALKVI
smiles,measurement,setting,value
CC1=C(CC(=O)N2CCn3c(nnc3C(F)(F)F)C2)C(C)NC(=O)N1 (configuration not stated),IC50,Dipeptidyl peptidase 4,2550 nM
CS(=O)(=O)n1cc2c(n1)CN([C@H]1CO[C@H](c3cc(F)ccc3F)[C@@H](N)C1)C2 [OMARIGLIPTIN],Activity,Rattus norvegicus [1],105 mg/dL
same,Activity,Rattus norvegicus [2],293 mg/dL
CC1=C(C(=O)O)C(c2ccc(F)c(F)c2)N=C(N)N1C(=O)CN1CCCC(N)C1 (configuration not stated),Activity,Rattus norvegicus [3],Active
same,Activity,Rattus norvegicus [4],148.09 mg/dL
same,Activity,Rattus norvegicus [5],114.65 mg/dL
same,Activity,Rattus norvegicus [6],Active
same,Activity,Rattus norvegicus [7],48.23 mg/dL
same,IC50,Dipeptidyl peptidase 4,90 nM
same,Activity,Rattus norvegicus [8],134.45 mg/dL
same,Activity,Rattus norvegicus [9],56.98 mg/dL
same,Activity,Rattus norvegicus [10],108.35 mg/dL
same,Activity,Rattus norvegicus [11],Active
same,Activity,Rattus norvegicus [12],106.76 mg/dL
same,Activity,Rattus norvegicus [13],123.32 mg/dL
same,Activity,Rattus norvegicus [14],Active
same,Activity,Rattus norvegicus [15],115.15 mg/dL
same,Activity,Rattus norvegicus [16],Active
same,Activity,Rattus norvegicus [17],Active
same,Activity,Rattus norvegicus [18],110.72 mg/dL
same,Activity,Rattus norvegicus [19],103.07 mg/dL
same,Activity,Rattus norvegicus [20],143.78 mg/dL
same,Activity,Rattus norvegicus [21],114.84 mg/dL
same,Activity,Rattus norvegicus [22],118.62 mg/dL
same,Activity,Rattus norvegicus [23],101.44 mg/dL
same,Activity,Rattus norvegicus [24],118.96 mg/dL
same,Activity,Rattus norvegicus [25],107.57 mg/dL
same,Activity,Rattus norvegicus [26],107.12 mg/dL
Cc1nc(N2CCn3c(nnc3C(F)(F)F)C2)nc(C)c1CC(=O)O,IC50,Dipeptidyl peptidase 4,226 nM
Cc1nc(N2CCCC2C#N)nc(C)c1CC(=O)O (configuration not stated),IC50,Dipeptidyl peptidase 4,1230 nM
CC1=C(CC(=O)N2Cc3cn(S(C)(=O)=O)nc3C2)C(C)NC(=O)N1 (configuration not stated),IC50,Dipeptidyl peptidase 4,942 nM
CC1=C(CC(=O)N2CCCC(N)C2)C(c2ccc(F)c(F)c2)NC(=O)N1 (configuration not stated),IC50,Dipeptidyl peptidase 4,1040 nM
CC1=C([N+](=O)[O-])C(c2ccc(F)c(F)c2)N=C(N)N1C(=O)CN1CCn2c(nnc2C(F)(F)F)C1 (configuration not stated),Activity,[27],Non-Toxic
same,Activity,[28],Non-Toxic
same,Activity,Rattus norvegicus [3],Active
same,Activity,[29],Non-Toxic
same,Activity,Rattus norvegicus [4],154.87 mg/dL
same,Activity,[30],Non-Toxic
same,Activity,Rattus norvegicus [5],119.45 mg/dL
same,Activity,[31],Non-Toxic
same,Activity,Rattus norvegicus [6],Active
same,Activity,Rattus norvegicus [7],46.34 mg/dL
same,Activity,[32],Non-Toxic
same,IC50,Dipeptidyl peptidase 4,85 nM
same,Activity,Rattus norvegicus [8],137.56 mg/dL
same,Activity,Rattus norvegicus [9],54.23 mg/dL
same,Activity,Rattus norvegicus [10],117.43 mg/dL
same,Activity,[33],Non-Toxic
same,Activity,Rattus norvegicus [11],Active
same,Activity,Rattus norvegicus [12],113.91 mg/dL
same,Activity,Rattus norvegicus [13],134.87 mg/dL
same,Activity,Rattus norvegicus [14],Active
same,Activity,Rattus norvegicus [15],117.46 mg/dL
same,Activity,Rattus norvegicus [16],Active
same,Activity,Rattus norvegicus [34],Active
same,Activity,Rattus norvegicus [17],Active
same,Activity,Rattus norvegicus [18],111.1 mg/dL
same,Activity,[35],Non-Toxic
same,Activity,Rattus norvegicus [19],104.01 mg/dL
same,Activity,Rattus norvegicus [20],149.76 mg/dL
same,Activity,[36],Non-Toxic
same,IC50,Dipeptidyl peptidase 8,1340 nM
same,Activity,Rattus norvegicus [21],107.56 mg/dL
same,Activity,[37],Non-Toxic
same,IC50,Dipeptidyl peptidase 9,1970 nM
same,Activity,Rattus norvegicus [22],120.87 mg/dL
same,Activity,Rattus norvegicus [23],103.88 mg/dL
same,Activity,Rattus norvegicus [24],115.67 mg/dL
same,Activity,Rattus norvegicus [25],109.45 mg/dL
same,Activity,Rattus norvegicus [26],115.89 mg/dL
Cc1nc(N2Cc3cn(S(C)(=O)=O)nc3C2)nc(C)c1CC(=O)O,IC50,Dipeptidyl peptidase 4,769 nM
CC1=C(C(=O)O)C(c2ccc(F)c(F)c2)N=C(N)N1C(=O)CN1CCCC1C#N (configuration not stated),IC50,Dipeptidyl peptidase 4,390 nM
